Consider 12 compounds from ChEMBL document CHEMBL1201862, “PubChem BioAssay data set” (2004).

A word on the EC50: it is the concentration needed to bring the measured effect to its halfway point. Broadly, the AC50 is the concentration giving half of the maximal activity seen.

Activity calls are given as the source filed them.

Experiment [1] has as its target T1, Low molecular weight phosphotyrosine protein phosphatase (Homo sapiens, UniProt P24666).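 Also: Dose-response confirmation assay measuring inhibition of LMPTP enzyme activity by fluorescence intensity read-out.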
T1 sequence (P24666 whole entry): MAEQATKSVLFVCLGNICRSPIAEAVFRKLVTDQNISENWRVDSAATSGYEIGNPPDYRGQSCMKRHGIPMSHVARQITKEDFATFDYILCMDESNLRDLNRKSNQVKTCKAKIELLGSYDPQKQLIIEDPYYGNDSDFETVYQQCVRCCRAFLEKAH
It counts as functional. To be noted: read-out: IC50_Mean.

Experiment [2] deals with Eukaryotic translation initiation factor 4E (Mus musculus, UniProt P63073). As to the kind of experiment: blockers of eIF4G binding by eIF4E – biochemical, TR-FRET, dose response (AID 855).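 Also: potency for disrupting eIF4E binding to eIF4GI seen as loss of FRET.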 It counts as functional. A general note: Time-resolved FRET reads energy transfer from a long-lived donor to a nearby acceptor.
Sequence of Eukaryotic translation initiation factor 4E (P63073 whole entry): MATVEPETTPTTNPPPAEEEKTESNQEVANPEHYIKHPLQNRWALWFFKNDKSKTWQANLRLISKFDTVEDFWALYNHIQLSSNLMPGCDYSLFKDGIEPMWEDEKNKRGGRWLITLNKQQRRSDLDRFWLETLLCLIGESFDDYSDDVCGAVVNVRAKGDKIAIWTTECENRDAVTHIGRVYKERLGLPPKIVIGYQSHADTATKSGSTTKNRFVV
For experiment [3], the target named is T2, Mannose-6-phosphate isomerase (Homo sapiens, UniProt P34949).
T2 sequence (P34949 whole entry): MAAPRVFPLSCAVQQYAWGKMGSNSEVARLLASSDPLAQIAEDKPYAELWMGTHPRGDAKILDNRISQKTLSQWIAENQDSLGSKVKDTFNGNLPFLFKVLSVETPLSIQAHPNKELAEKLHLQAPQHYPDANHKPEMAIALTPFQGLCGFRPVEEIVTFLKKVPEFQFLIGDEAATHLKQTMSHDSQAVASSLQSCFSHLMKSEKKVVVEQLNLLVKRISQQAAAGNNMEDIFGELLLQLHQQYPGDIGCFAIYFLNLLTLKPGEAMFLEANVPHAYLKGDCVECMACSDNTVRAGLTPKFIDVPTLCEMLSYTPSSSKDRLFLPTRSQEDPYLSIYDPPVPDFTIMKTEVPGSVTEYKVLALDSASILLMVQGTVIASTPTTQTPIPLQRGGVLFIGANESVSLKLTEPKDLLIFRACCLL
As to the kind of experiment: MPI inhibition at elevated mannose 6-phosphate – biochemical, fluorescence intensity, high mannose 6-phosphate, primary screen (AID 1220).

Experiment [4] has as its target T3, Heat shock factor protein 1 (Mus musculus, UniProt P38532).
T3 sequence (P38532 whole entry): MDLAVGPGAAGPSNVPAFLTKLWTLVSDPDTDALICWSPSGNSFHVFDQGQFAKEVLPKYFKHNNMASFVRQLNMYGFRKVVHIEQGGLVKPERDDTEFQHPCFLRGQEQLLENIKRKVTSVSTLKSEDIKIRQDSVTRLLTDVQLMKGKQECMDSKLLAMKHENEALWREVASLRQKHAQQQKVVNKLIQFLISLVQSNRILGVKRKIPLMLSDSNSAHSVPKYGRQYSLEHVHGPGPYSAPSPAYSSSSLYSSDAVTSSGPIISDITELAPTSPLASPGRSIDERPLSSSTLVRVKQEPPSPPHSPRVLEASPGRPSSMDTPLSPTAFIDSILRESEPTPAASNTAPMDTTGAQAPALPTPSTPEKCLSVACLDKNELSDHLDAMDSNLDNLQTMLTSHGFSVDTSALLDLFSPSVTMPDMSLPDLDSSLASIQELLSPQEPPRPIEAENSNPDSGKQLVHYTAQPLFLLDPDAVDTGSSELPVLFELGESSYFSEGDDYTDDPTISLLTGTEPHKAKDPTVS
As to the kind of experiment: enhancement of HSF1-driven luciferase signal – cell-based, NIH3T3, luminescence, dose retest, confirmation (AID 435004).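 Also: stress induced by proteasome inhibitor MG132 added 30 min after compound; luciferase reporter driven by HSF1 response element in NIH3T3 cells; actives raise luminescence as potentiators of the MG132 stress response.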 It counts as functional.

Experiment [5] in a line: blockers of bursicon-stimulated LGR2 cAMP reporter – cell-based, HEK293, CRE-luciferase reporter, cherry pick, set 2, dose response (AID 743343).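 Also: transfected cells were stimulated with diluted bursicon conditioned medium after compound addition.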 Type of experiment: functional. On the technique in general: A reporter such as luciferase makes a cellular process visible.
A short description of experiment [6]: A549 cell cytotoxicity, dose response, cytotoxicity control, plate reader, cherry-pick, antagonist series (AID 743412). Type of experiment: functional, cell-based.
Experiment [7] in a line: blockade of melanocortin 4 receptor signaling – cell-based, plate reader, cherry pick, counter-screen for LGR2 antagonist project, dose response (AID 743444).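 Also: transfected HEK 293 cells stimulated with alpha-MSH peptide; potency of inhibitors of the alpha-MSH evoked signal.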 It counts as functional.
The next experiment concerns the target T4, Protein RecA (Mycobacterium tuberculosis, UniProt P9WHJ3).
T4 sequence (P9WHJ3 whole entry): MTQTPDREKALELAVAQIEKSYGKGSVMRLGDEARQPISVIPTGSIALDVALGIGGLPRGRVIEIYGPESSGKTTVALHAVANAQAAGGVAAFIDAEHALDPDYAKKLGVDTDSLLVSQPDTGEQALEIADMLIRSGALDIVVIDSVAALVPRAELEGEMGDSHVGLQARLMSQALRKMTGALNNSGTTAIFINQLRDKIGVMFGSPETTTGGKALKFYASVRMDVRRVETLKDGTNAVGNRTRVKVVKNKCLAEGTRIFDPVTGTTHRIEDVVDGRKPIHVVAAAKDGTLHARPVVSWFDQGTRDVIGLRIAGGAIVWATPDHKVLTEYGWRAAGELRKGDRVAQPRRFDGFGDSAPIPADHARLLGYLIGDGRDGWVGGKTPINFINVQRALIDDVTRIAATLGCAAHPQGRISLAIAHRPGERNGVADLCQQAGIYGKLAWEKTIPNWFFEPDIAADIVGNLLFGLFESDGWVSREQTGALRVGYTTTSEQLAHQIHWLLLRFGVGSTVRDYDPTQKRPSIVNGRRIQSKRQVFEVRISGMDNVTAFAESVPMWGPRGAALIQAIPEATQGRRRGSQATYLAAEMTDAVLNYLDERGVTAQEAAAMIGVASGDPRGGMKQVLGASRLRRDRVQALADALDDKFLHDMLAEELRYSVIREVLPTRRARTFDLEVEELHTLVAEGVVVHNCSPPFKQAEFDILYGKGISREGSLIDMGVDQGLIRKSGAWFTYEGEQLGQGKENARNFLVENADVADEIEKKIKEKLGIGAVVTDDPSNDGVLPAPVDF
As to the kind of experiment: Fluorescence Cell-Free Homogeneous Dose Retest to Identify Inhibitors of RecA-Intein Splicing Activity. [Related pubchem assays (depositor defined):AID2097, AID2223, AID489010, AID492950]. It counts as functional.

The target in experiment [8] is T5, Replicative DNA helicase DnaB (Mycobacterium tuberculosis, UniProt P9WMR3).
T5 sequence (P9WMR3 whole entry): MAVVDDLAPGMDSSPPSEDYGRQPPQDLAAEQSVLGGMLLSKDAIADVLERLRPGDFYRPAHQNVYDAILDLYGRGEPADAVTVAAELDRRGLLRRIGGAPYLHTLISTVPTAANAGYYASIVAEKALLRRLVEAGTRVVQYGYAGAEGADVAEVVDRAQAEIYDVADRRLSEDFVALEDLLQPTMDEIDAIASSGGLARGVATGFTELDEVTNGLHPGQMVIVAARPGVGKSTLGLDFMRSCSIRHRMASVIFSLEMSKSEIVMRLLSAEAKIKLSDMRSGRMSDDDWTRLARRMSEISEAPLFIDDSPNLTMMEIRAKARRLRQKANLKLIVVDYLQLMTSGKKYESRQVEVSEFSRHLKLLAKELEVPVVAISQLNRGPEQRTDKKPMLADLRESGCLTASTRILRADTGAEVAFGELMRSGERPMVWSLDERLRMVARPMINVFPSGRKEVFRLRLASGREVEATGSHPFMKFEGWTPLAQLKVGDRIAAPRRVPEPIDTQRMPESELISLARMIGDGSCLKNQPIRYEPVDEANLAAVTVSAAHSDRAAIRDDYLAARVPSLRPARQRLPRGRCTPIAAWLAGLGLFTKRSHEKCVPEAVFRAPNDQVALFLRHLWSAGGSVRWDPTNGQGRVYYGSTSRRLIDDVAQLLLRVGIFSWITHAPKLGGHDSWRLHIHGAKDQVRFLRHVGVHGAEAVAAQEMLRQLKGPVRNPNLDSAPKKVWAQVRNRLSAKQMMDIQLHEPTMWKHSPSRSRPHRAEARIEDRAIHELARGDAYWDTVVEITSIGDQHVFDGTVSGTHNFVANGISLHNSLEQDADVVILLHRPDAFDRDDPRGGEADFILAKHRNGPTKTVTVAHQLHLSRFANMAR
Briefly: DnaB intein splicing inhibitors, dose response, biochemical, cell-free fluorescence (AID 449749). Type of experiment: functional.

For another experiment, the target named is Genome polyprotein (dengue virus type 2, UniProt P29990). Briefly: flavivirus cap methylation enzyme inhibition – biochemical, confirmation dose response, primary screen (AID 588689). Type of experiment: functional.
Sequence of Genome polyprotein (P29990 2492-3391 limits assumed): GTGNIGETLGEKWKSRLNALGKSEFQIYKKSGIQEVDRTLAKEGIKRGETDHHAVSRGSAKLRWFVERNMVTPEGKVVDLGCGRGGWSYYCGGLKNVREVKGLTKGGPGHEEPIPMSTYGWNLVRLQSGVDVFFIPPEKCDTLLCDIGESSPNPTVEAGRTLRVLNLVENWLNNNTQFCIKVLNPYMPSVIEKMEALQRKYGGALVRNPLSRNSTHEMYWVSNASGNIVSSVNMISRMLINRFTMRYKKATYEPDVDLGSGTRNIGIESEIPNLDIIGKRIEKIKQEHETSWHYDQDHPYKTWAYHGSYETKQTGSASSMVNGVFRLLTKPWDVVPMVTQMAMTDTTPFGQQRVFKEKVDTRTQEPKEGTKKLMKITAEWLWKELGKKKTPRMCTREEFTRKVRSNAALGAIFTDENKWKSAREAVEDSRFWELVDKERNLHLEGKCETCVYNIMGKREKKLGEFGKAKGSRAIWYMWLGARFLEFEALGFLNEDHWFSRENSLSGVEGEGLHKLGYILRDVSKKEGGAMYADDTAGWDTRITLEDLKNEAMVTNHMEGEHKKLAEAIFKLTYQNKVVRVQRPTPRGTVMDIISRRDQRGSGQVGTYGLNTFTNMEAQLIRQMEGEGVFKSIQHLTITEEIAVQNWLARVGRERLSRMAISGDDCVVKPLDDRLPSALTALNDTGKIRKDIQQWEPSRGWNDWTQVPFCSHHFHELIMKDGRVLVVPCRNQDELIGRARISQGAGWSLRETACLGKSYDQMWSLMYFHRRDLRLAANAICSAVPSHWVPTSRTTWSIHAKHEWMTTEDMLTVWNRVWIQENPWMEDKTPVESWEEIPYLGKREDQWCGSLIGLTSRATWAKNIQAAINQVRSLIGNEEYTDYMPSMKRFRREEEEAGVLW
Experiment [9] is described as follows: general mammalian cell viability loss – inhibitor set, cherry-pick, set 2, cytotoxicity control for miR-122 modulator project, dose response (AID 720697). Type of experiment: functional, cell-based.
Experiment [10] is described as follows: alpha-synuclein stem-loop luciferase translation blockers – H4 neuroglioma cells, luminescence, confirmation (AID 1988). It counts as functional, cell-based.
The nature of experiment [11]: Luminescence Cell-Based Dose Response HTS to Identify Inhibitors of 5'UTR Stem-Loop Driven Prion Protein mRNA Translation in H4 Neuroglioblastoma Cells. [Related pubchem assays: 1827 (Project Summary), 1813 (Primary HTS)]. Type of experiment: functional.
The nature of experiment [12]: luciferase reporter signal suppression in cells – H4 neuroglioma cells, luminescence, dose response (AID 1990). It counts as functional, cell-based.

In the case of `O=c1cc(CSc2nc(NCc3ccccc3)c3ccccc3n2)nc2ccc(Cl)cn12`, the IC50 in experiment [1] is 26 µM (inactive).
For `Nc1nc2c(s1)CCc1c-2cnn1-c1ccccc1`, the IC50 is > 64 µM (inactive) in experiment [2] and 1.42 µM (active) in experiment [3].
Regarding `C(=C\c1nc(N2CCCC2)c2ccccc2n1)/c1ccccc1`, in experiment [1], the IC50 is 8.49 µM (active).
Still for that read-out and setting: with `COc1ccc(-c2cc(C(=O)Nc3cc(Br)ccc3O)no2)cc1` the figure was 2.09 µM (active).
Turning to `Oc1nc(CSc2ccccn2)nc2c1oc1ccccc12`, in [4], the 50% effective concentration (EC50) is > 260 µM (inconclusive). Further, the half-maximal activity concentration (AC50) in experiment [5] is 5.23 µM (active); in [6], > 52 µM (inactive); in experiment [7] it was 6.77 µM (active).
Consider `COCCn1c(C)cc(C(=O)CSc2nnnn2C2CCCC2)c1C`, for which the AC50 in experiment [5] is 3.39 µM (active); in experiment [7] it was 2.78 µM (active).
`Oc1cc(O)c2sc(Nc3ccc(F)cc3)nc2n1`: the IC50 in [3] is listed as > 50 µM (not active).
On to `COc1ccc(N2C(=O)C(Cl)=C(N3CCOCC3)C2=O)cc1`, for which the concentration for a half-maximal effect (EC50) at Protein RecA was 3 µM (active). In experiment [8], the AC50 is 10.8 µM (active). Also, at Genome polyprotein, the IC50 is 33.1 µM (active).
As for `Cc1nnsc1Sc1cccc(C(F)(F)F)c1`, the AC50 in experiment [9] is 8.67 µM (active).
In the case of `CCNC(=O)Nc1ccc2c(c1)C(=O)N(C)[C@@H]1CC[C@H](CC(=O)NCC3CC3)O[C@@H]1CO2`, the AC50 in experiment [9] was 0.493 µM (active).
Still for that read-out and setting: with `C/C=C/c1ccc([C@H]2[C@@H](CO)N(C(=O)C3CC3)[C@H]2CNC(=O)NC(C)C)cc1` the figure was 0.558 µM (active).
Take `Nc1c(C(=O)N/N=C/c2ccc(OCc3ccccc3)cc2)cnn1-c1ccccc1`: the IC50 in experiment [1] is 25.9 µM (inactive). Besides, the concentration giving a half-maximal response (EC50) in experiment [10] is 11.9 µM (active); in experiment [11], 21.9 µM (active); in [12], > 120 µM (not active).
